Experimental data from PubChem BioAssay (NCI).
“And” between values parts separate entries of the source, which are not always exact repeats. Equal entries are not always repeated.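 Exposure lasted 48 hours, with cells grown in 96-well plates and compounds tested at five concentrations. GI50: concentration for 50% inhibition of growth. The concentration for full growth arrest is given as TGI.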

Tests used:
Assay in all cases: growth of human tumour cells (NCI), 48 h
[1] = test system: NCI-H460 lung
[2] = test system: HOP-92 NSCLC
[3] = test system: CCRF-CEM leukemia
[4] = test system: MDA-N
[5] = test system: IGROV1 ovarian
[6] = test system: SNB-75 CNS
[7] = test system: NCI/ADR-RES ovarian
[8] = test system: SNB-19 CNS
[9] = test system: OVCAR-3 ovarian
[10] = test system: MCF7 breast
[11] = test system: SF-268 CNS
[12] = test system: UACC-257 melanoma
[13] = test system: OVCAR-5 ovarian
[14] = test system: NCI-H522 lung
[15] = test system: COLO 205 colon
[16] = test system: OVCAR-8 ovarian
[17] = test system: SN12C renal
[18] = test system: LOX IMVI melanoma
[19] = test system: RPMI-8226 leukemia
[20] = test system: SK-MEL-5 melanoma
[21] = test system: HOP-62 NSCLC
[22] = test system: A549 NSCLC
[23] = test system: MDA-MB-435
[24] = test system: PC-3 prostate
[25] = test system: T-47D breast
[26] = test system: UACC-62 melanoma
[27] = test system: TK-10 renal
[28] = test system: HS 578T breast
[29] = test system: CAKI-1 renal
[30] = test system: OVCAR-4 ovarian
[31] = test system: BT-549 breast
[32] = test system: U251 CNS
[33] = test system: SK-MEL-28 melanoma
[34] = test system: MDA-MB-231 breast
[35] = test system: SW-620 colon
[36] = test system: SK-MEL-2 melanoma
[37] = test system: MALME-3M melanoma
[38] = test system: 786-0 renal
[39] = test system: RXF 393 renal
[40] = test system: HCT-15 colon
[41] = test system: SK-OV-3 ovarian
[42] = test system: M14 melanoma
[43] = test system: DU-145 prostate
[44] = test system: A498 renal
[45] = test system: HL-60(TB) leukemia
[46] = test system: HCT-116 colon
[47] = test system: HCC-2998 colon
[48] = test system: K-562 leukemia
[49] = test system: UO-31 renal
[50] = test system: NCI-H226 lung
[51] = test system: EKVX NSCLC
[52] = test system: NCI-H23 lung
[53] = test system: KM12 colon
[54] = test system: SF-295 CNS
[55] = test system: ACHN renal
[56] = test system: MOLT-4 leukemia
[57] = test system: HT29 colon
[58] = test system: SF-539 CNS

COC(=O)/C=C\C(C#N)(C#N)N=Cc1ccc(Br)s1
TGI [1]: 48000 nM
TGI [2]: 4.67 µM
TGI [3]: 5.5 µM
TGI [4]: 24400 nM
TGI [5]: 31900 nM
TGI [6]: 29400 nM
TGI [7]: 45200 nM
TGI [8]: 21900 nM
TGI [9]: 23300 nM
TGI [10]: 6100 nM
TGI [11]: 40200 nM
TGI [12]: 28.6 µM
TGI [13]: 31500 nM
TGI [14]: 3.33 µM
TGI [15]: 6.02 µM
TGI [16]: 19100 nM
TGI [17]: 35.1 µM
TGI [18]: 7390 nM
TGI [19]: 7.11 µM
TGI [20]: 27400 nM
TGI [21]: 31.8 µM
TGI [22]: 45400 nM
TGI [23]: 13900 nM
TGI [24]: 26800 nM
TGI [25]: > 30.6 µM
TGI [26]: 24.9 µM
TGI [27]: 6650 nM
TGI [28]: > 85.5 µM
TGI [29]: 5940 nM
TGI [30]: 16.3 µM
TGI [31]: 16.8 µM
TGI [32]: 38000 nM
TGI [33]: 33700 nM
TGI [34]: 4510 nM
TGI [35]: 5530 nM
TGI [36]: 33200 nM
TGI [37]: 4270 nM
TGI [38]: 12900 nM
TGI [39]: 4870 nM
TGI [40]: 6630 nM
TGI [41]: 33400 nM
TGI [42]: 8860 nM
TGI [43]: 24500 nM
TGI [44]: 31500 nM
TGI [45]: 5.04 µM
TGI [46]: 34800 nM
TGI [47]: 34.4 µM
TGI [48]: > 100 µM
TGI [49]: 7.18 µM
TGI [50]: 12400 nM
TGI [51]: 26400 nM
TGI [52]: 46.9 µM
TGI [53]: 32600 nM
TGI [54]: 33000 nM
TGI [55]: 6100 nM
TGI [56]: > 100 µM

S=C(N/N=C(/c1ccccc1)c1ccccn1)N1CCCCCC1
GI50 [57]: 7.24 nM
TGI [57]: 3.41 µM and 1.8 µM
GI50 [1]: 3.55 nM
TGI [1]: 1580 nM and 1890 nM
TGI [2]: 1.97 µM
GI50 [3]: < 1 nM
GI50 [4]: 217 nM
TGI [4]: 2320 nM and 1720 nM
GI50 [5]: < 1 nM
TGI [5]: 1060 nM and 1980 nM
GI50 [6]: 660 nM
TGI [6]: 2040 nM and 1950 nM
GI50 [7]: < 1 nM
TGI [7]: 1280 nM and 2540 nM
GI50 [8]: 274 nM
TGI [8]: 2270 nM and 2060 nM
GI50 [9]: < 1 nM
TGI [9]: 1760 nM and 1230 nM
GI50 [10]: < 1 nM
TGI [10]: 194 nM and 1560 nM
TGI [11]: 1960 nM and 2870 nM
TGI [12]: 0.709 µM
GI50 [13]: < 1 nM
TGI [13]: 2110 nM
GI50 [14]: 1280 nM
TGI [14]: 3.48 µM and 1.13 µM
GI50 [15]: < 1 nM
GI50 [16]: 3.75 nM
TGI [16]: 1650 nM and 1330 nM
TGI [17]: 1.91 µM
GI50 [18]: 8.92 nM and 58.3 nM
TGI [18]: 1790 nM and 1270 nM
GI50 [20]: 19.9 nM
TGI [20]: 138 nM and 1170 nM
TGI [21]: 1.91 µM
GI50 [22]: 31.8 nM
TGI [22]: 1700 nM and 2250 nM
GI50 [23]: 43 nM
TGI [23]: 1590 nM and 1580 nM
GI50 [24]: < 1 nM
TGI [24]: 1370 nM and 1520 nM
GI50 [25]: < 1 nM
GI50 [26]: 390 nM
TGI [26]: 3.73 µM and 0.78 µM
TGI [27]: 1520 nM and 1860 nM
GI50 [28]: 1540 nM
TGI [28]: 7.58 µM and 7.59 µM
GI50 [29]: 131 nM
TGI [29]: 1870 nM and 2020 nM
TGI [30]: 2.04 µM
TGI [31]: 2.07 µM
GI50 [32]: 2.87 nM
TGI [32]: 1220 nM and 1270 nM
GI50 [33]: 863 nM and 639 nM
TGI [33]: 2410 nM and 2150 nM
GI50 [34]: < 1 nM
TGI [34]: 1870 nM and 1830 nM
GI50 [35]: < 1 nM
TGI [35]: 1430 nM and 1680 nM
GI50 [36]: 26.9 nM
TGI [36]: 2120 nM and 2140 nM
GI50 [58]: 329 nM
TGI [58]: 1430 nM and 1630 nM
GI50 [37]: 39.2 nM
TGI [37]: 1960 nM and 2010 nM
GI50 [38]: < 1 nM
TGI [38]: 1460 nM and 1770 nM
TGI [39]: 1630 nM and 2320 nM
GI50 [40]: 3.27 nM
TGI [40]: 2050 nM and 1530 nM
GI50 [41]: 1.73 nM
TGI [41]: 2500 nM and 1310 nM
TGI [42]: 1470 nM and 260 nM
GI50 [43]: 1030 nM
TGI [43]: 2190 nM and 2150 nM
GI50 [44]: 9.73 nM
TGI [44]: 775 nM and 1840 nM
GI50 [45]: < 1 nM
TGI [45]: 4.13 µM
GI50 [46]: < 1 nM
TGI [46]: 1430 nM and 1380 nM
GI50 [47]: 1170 nM
TGI [47]: 3.13 µM and 1.98 µM
GI50 [48]: < 1 nM
TGI [48]: 0.0117 µM
TGI [49]: 1.75 µM
GI50 [50]: 20 nM
TGI [50]: 1190 nM and 1580 nM
GI50 [51]: 641 nM
TGI [51]: 1940 nM and 365 nM
TGI [52]: 2.11 µM
GI50 [53]: 10.5 nM
TGI [53]: 1570 nM and 1500 nM
GI50 [54]: 564 nM
TGI [54]: 2080 nM and 1510 nM
GI50 [55]: 2.16 nM
TGI [55]: 1580 nM and 1470 nM
GI50 [56]: < 1 nM
TGI [56]: 0.00191 µM

CNC(=O)CN(C)C(=O)CCC(=O)N(C)C
TGI [57]: > 100 µM
TGI [1]: > 100000 nM
TGI [2]: > 100 µM
TGI [3]: > 100 µM
TGI [4]: > 100000 nM
TGI [5]: > 100000 nM
TGI [6]: > 100000 nM
TGI [7]: > 100000 nM
TGI [8]: > 100000 nM
TGI [9]: > 100000 nM
TGI [10]: > 100000 nM
TGI [11]: > 100000 nM
TGI [12]: > 100 µM
TGI [13]: > 100000 nM
TGI [14]: > 100 µM
TGI [15]: > 100 µM
TGI [16]: > 100000 nM
TGI [17]: > 100 µM
TGI [18]: > 100000 nM
TGI [19]: > 100 µM
TGI [20]: > 100000 nM
TGI [21]: > 100 µM
TGI [22]: > 100000 nM
TGI [23]: > 100000 nM
TGI [24]: > 100000 nM
TGI [25]: > 100 µM
TGI [26]: > 100 µM
TGI [27]: > 100000 nM
TGI [28]: > 100 µM
TGI [29]: > 100000 nM
TGI [31]: > 100 µM
TGI [32]: > 100000 nM
TGI [33]: > 100000 nM
TGI [34]: > 100000 nM
TGI [35]: > 100000 nM
TGI [36]: > 100000 nM
TGI [58]: > 100000 nM
TGI [37]: > 100000 nM
TGI [38]: > 100000 nM
TGI [40]: > 100000 nM
TGI [41]: > 100000 nM
TGI [42]: > 100000 nM
TGI [43]: > 100000 nM
TGI [44]: > 100000 nM
TGI [45]: > 100 µM
TGI [46]: > 100000 nM
TGI [47]: > 100 µM
TGI [48]: > 100 µM
TGI [49]: > 100 µM
TGI [50]: > 100000 nM
TGI [51]: > 100000 nM
TGI [52]: > 100 µM
TGI [53]: > 100000 nM
TGI [54]: > 100000 nM
TGI [55]: > 100000 nM
TGI [56]: > 100 µM
